Results from patent US20070135488A1, “Amlodipine nicotinate and process for the preparation thereof” (priority 2002, published 2007).
Read-outs that look alike come from different tables or passages of the source.

How the values were obtained:
[1] = tested on: spontaneously hypertensive rats (SHRs); assay: In vivo anti-hypertensive activity, systolic blood pressure by tail-cuff method; design: species or system rat; settings: SHR; for Maximal anti-hypertensive effect (change of systolic blood pressure) / Intensity (maximal effect of amlodipine nicotinate to maximal effect of amlodipine besylate) / ED20 (amount necessary for 20% decrease in the blood pressure) / Intensity (reverse ratio of ED20 values relative to amlodipine besylate): oral; for Maximal anti-hypertensive effect (change of systolic blood pressure): mean % ± S.E.M.
Description: Cardiovascular effects, i.e., in vivo anti-hypertensive activities, were measured for amlodipine besylate prepared in accordance with U.S. Pat. No. 4,879,303 and amlodipine nicotinate prepared in Example 1, using spontaneously hypertensive rats (SHRs), by Korea Research Institute of Chemical Technology (Screening Center, #100, Jang-dong, Yuseong-gu, Daejeon).
Male SHRs (Charles Rever Co., Japan) aged 13-14 weeks were used. Before evaluation, the SHRs were accustomed in a clean breeding chamber under conditions of a temperature of 22.5±1° C., a relative humidity of 55±5% and a lighting time of 12 hour intervals.
The SHRs having a systolic blood pressure over 170 mmHg were divided into 7 groups, i.e., Test Groups 1 to 3 (for amlodipine besylate), Test Groups 4 to 6 (for amlodipine nicotinate) and a Control Group. Each Test Group and Control Group consisted of 6-8 SHRs (n=6-8).
The test compounds were dissolved in distilled water to prepare test solutions immediately prior to administration. The test solutions of amlodipine besylate and amlodipine nicotinate were prepared by dissolving 1, 3, and 10 mg/kg in distilled water (0.5 ml/100 g rat), respectively, and then administered orally to each Test Group. The vehicle (distilled water) was administered to Control Group.
The systolic blood pressure was measured with Multichannel 8000 (TSE Co., Germany), using a tail-cuff method. That is, the systolic blood pressures of a tail artery of each rat were measured before the administration of the test solutions and after 2, 4, 6, 8, 10, and 24 hours from the administration thereof. In order to facilitate the measurement of blood pressures, the test animals of each Group underwent warming at 37° C. for about 10 minutes before the measurements.
The results of the foregoing test were expressed by a mean percentage and standard error (mean %±S.E.M.). Statistical analysis of the test results were conducted by an unpaired t-test and ANOVA (one-way analysis of variance) with Sigma Stat program (Jandel Co., USA). The secondary evaluations were conducted by a Dunnett's multiple comparison test.

[2] = Chemical stability (stability test under stress condition); type: physicochemical; settings: tablets in sealed vials, 50° C., 60% relative humidity, three weeks, TLC
Description: In order to assess the chemical stability, amlodipine besylate and amlodipine nicotinate were blended in a powder vehicle and formed into tablets. The vehicle for tablets comprised microcrystalline cellulose and anhydrous dibasic calcium phosphate in 50:50. The tablets were then stored in sealed vials at 50° C. and at 60% relative humidity for three weeks.
FIGS. 4A and 4B show H-NMR charts of amlodipine besylate before and after the stability test, respectively, and FIGS. 5A and 5B show H-NMR charts of amlodipine nicotinate before and after the stability test, respectively. The peaks on NMR of amlodipine besylate are as follows: […]

[3] = Solubility measurement (water solubility and pH at saturation); type: physicochemical; settings: distilled water, room temperature; for solubility: ultrasonic waves, maximal solubilized amount
Description: Water solubilities were measured for amlodipine besylate prepared in accordance with U.S. Pat. No. 4,879,303 and amlodipine nicotinate obtained in Example 1. By using 50 ml of distilled water and ultrasonic waves, maximal solubilized amounts were measured at a room temperature and pHs at saturation were measured using Fischer Scientific Accument (PH meter 15).

[4] = Processability test (stickiness to tablet punch); type: physicochemical; settings: amount adhering to tablet punch; for Stickiness: Amlodipine(μg)/cm^2 (tablet): average from slope over runs of 50-300 tablets
Description: Using a conventional tablet making machinery, fifty tablets containing calcium sulphate dihydrate, microcrystalline cellulose and amlodipine nicotinate dihydrate (47.5:47.5:5) were produced. The material adhering to the tablet punch was then extracted using methanol and the amount was measured spectrometrically. This procedure was then repeated for runs of 100, 150, […], 250 and 300 tablets. After each run the amount of material adhering to the tablet punch was measured in the same process as above. The values were plotted and an average value was calculated from the slope of the line produced. The same procedure was then repeated for amlodipine besylate. The amount of amlodipine measured as adhering to the tablet punch is shown in Table 2 for amlodipine nicotinate dihydrate with relative to amlodipine besylate.

Hygroscopicity test = type: physicochemical; settings: 60% relative humidity, 50° C., 14 days
Description: 1.0 g of amlodipine besylate prepared in accordance with U.S. Pat. No. 4,879,303 and 1.0 g of amlodipine nicotinate dihydrate obtained in Example 1 were exposed to 60% relative humidity at 50° C. for 14 days.

Photostability = type: physicochemical; settings: 25-30° C., 2 weeks, incandescent lamp (220V, 100 W) 30 cm above
Description: 1.0 g of amlodipine besylate prepared in accordance with U.S. Pat. No. 4,879,303 and 1.0 g of amlodipine nicotinate dihydrate obtained in Example 1, which were placed in glass schales (100×20 mm), were exposed at 25-30° C. for 2 weeks under an incandescent lamp (220V, 100 W) that was placed at 30 cm above the samples. […] FIGS. 6A and 6B show H-NMR charts of amlodipine besylate before and after the photostability test, respectively. The peaks on NMR of amlodipine besylate are as follows: […]

[5] = 1 mg/kg, listed as Nicotinate salt, dihydrate
[6] = listed as amlodipine nicotinate, dihydrate

Question: With CCOC(=O)C1=C(COCCN)NC(C)=C(C(=O)OC)C1c1ccccc1Cl (centres unmarked) [Amlodipine nicotinate, amlodipine nicotinate dihydrate] as the compound, how does the “Maximal anti-hypertensive effect (change of systolic blood pressure)” value [1, 5] read?
Answer: Its value is −10.20 ± 2.71%.

Question: What about the “Intensity (maximal effect of amlodipine nicotinate to maximal effect of amlodipine besylate)” value ([1]; 1 mg/kg, dihydrate) of the same compound?
Answer: Its value is “about 1.46”.

Question: What about the “Intensity (maximal effect of amlodipine nicotinate to maximal effect of amlodipine besylate)” value [1, 5] of the same compound?
Answer: The value was 1.46.

Question: And the “Intensity (maximal effect of amlodipine nicotinate to maximal effect of amlodipine besylate)” value ([1]; 3 mg/kg)?
Answer: The value was 1.07.

Question: And the “Maximal anti-hypertensive effect (change of systolic blood pressure)” value ([1]; 3 mg/kg, listed as Nicotinate salt, dihydrate)?
Answer: The value was −26.8 ± 3.22%.

Question: And the “Intensity (maximal effect of amlodipine nicotinate to maximal effect of amlodipine besylate)” value ([1]; 10 mg/kg)?
Answer: Its value is 1.06.

Question: And the “Maximal anti-hypertensive effect (change of systolic blood pressure)” value ([1]; 10 mg/kg, listed as Nicotinate salt, dihydrate)?
Answer: Its value is −40.9 ± 2.08%.

Question: And the “ED20 (amount necessary for 20% decrease in the blood pressure)” value ([1]; dihydrate)?
Answer: Its value is 2.19 ± 0.57 mg/kg.

Question: And the “Intensity (reverse ratio of ED20 values relative to amlodipine besylate)” value ([1]; dihydrate)?
Answer: Its value is 1.13.

Question: What about the “ED20 (amount necessary for 20% decrease in the blood pressure)” value [1, 6] of the same compound?
Answer: Its value is 2.19 ± 0.57 mg/kg.

Question: What about the “Intensity (reverse ratio of ED20 values relative to amlodipine besylate)” value [1, 6] of the same compound?
Answer: Its value is “about 1.13”.

Question: And the “breakdown products after stability test” value ([2]; dihydrate)?
Answer: Its value is “no breakdown product”.

Question: What about the pH at saturation ([3]; dihydrate) of the same compound?
Answer: Its pH at saturation is 7.2.

Question: What about the solubility ([3]; dihydrate) of the same compound?
Answer: The solubility was 6800 µg/mL.

Question: And the “Stickiness: Amlodipine(μg)/cm^2 (tablet)” value ([4]; dihydrate)?
Answer: Its value is 0.44 μg/cm^2 (tablet).

Question: And the “Stickiness relative to besylate” value ([4]; dihydrate)?
Answer: Its value is 36.7%.

Question: What about the “hygroscopicity (state after exposure)” value (Hygroscopicity test; dihydrate) of the same compound?
Answer: The value was “remained intact”.

Question: And the “color change after photostability test” value (Photostability; dihydrate)?
Answer: Its value is “no color change”.

Question: With CCOC(=O)C1=C(COCCN)NC(C)=C(C(=O)OC)C1c1ccccc1Cl (centres unmarked) [Amlodipine besylate, amlodipine besylate, reference compound] as the compound, how does the “ED20 (amount necessary for 20% decrease in the blood pressure)” value [1] read?
Answer: The value was 2.48 ± 0.46 mg/kg.

Question: What about the “Intensity (reverse ratio of ED20 values relative to amlodipine besylate)” value [1] of the same compound?
Answer: The value was 1.00.

Question: And the “Maximal anti-hypertensive effect (change of systolic blood pressure)” value ([1]; 1 mg/kg, listed as Besylate salt)?
Answer: The value was −7.0 ± 1.66%.

Question: And the “Maximal anti-hypertensive effect (change of systolic blood pressure)” value ([1]; 3 mg/kg, listed as Besylate salt)?
Answer: Its value is −25.0 ± 1.98%.

Question: What about the “Maximal anti-hypertensive effect (change of systolic blood pressure)” value ([1]; 10 mg/kg, listed as Besylate salt) of the same compound?
Answer: The value was −38.7 ± 2.18%.

Question: What about the “effect on blood pressure” value ([1]; oral, 1, 3 and 10 mg/kg) of the same compound?
Answer: The value was “dose-dependently reduced blood pressures”.

Question: And the “ED20 (amount necessary for 20% decrease in the blood pressure)” value ([1]; listed as amlodipine besylate)?
Answer: The value was 2.48 ± 0.46 mg/kg.

Question: What about the “breakdown products after stability test” value [2] of the same compound?
Answer: The value was “breakdown products”.

Question: What about the pH at saturation [3] of the same compound?
Answer: The pH at saturation was 6.6.

Question: And the solubility ([3]; water, thermodynamic from solid, read-out: Solubility)?
Answer: Its solubility is 4600 µg/mL.

Question: And the “Stickiness relative to besylate” value [4]?
Answer: Its value is 100.0%.

Question: What about the “Stickiness: Amlodipine(μg)/cm^2 (tablet)” value [4] of the same compound?
Answer: Its value is 1.20 μg/cm^2 (tablet).

Question: What about the “hygroscopicity (state after exposure)” value (Hygroscopicity test) of the same compound?
Answer: The value was “remained anhydrous”.

Question: And the “color change after photostability test” value (Photostability)?
Answer: The value was “discolored to yellow”.
